In PMC5423977, “Safety, pharmacokinetics, and pharmacodynamics of BMS-986142, a novel reversible BTK inhibitor, in healthy participants” (European Journal of Clinical Pharmacology, 2017):

Columns and labels:
[1] = Stability of BMS-986142 in human EDTA plasma and processed samples (bioanalytical validation); type: physicochemical
Method: Method validation was carried out according to the Bristol-Myers Squibb Standard Operating Procedures (SOPs) for chromatographic method validation which conforms to the U.S. FDA’s Good Laboratory Practice (GLP) regulations (21 CFR part 58). The validation experiments included but were not limited to the determination of the lower limit of quantification (LLOQ), specificity, accuracy and precision, recovery, and analyte stability under the expected conditions of sample transfer, sample storage, and sample preparation. The LLOQ of the assay was determined to be 1 ng/mL using six different lots of plasma. No interference from the endogenous components and the internal standard was observed.
The accuracy and precision data for BMS-986142, based on the maximum value from all six QC levels, obtained using one-way ANOVA in Watson are listed in Table 1. The recovery of the analyte from human plasma during extraction was determined at 3 ng/mL and 800 ng/mL for BMS-986142, at 3 ng/mL, 30 ng/mL and 750 ng/mL for methotrexate and 7-hydroxymethotrexate, by comparing the response ratios in human plasma samples spiked with the analyte prior to extraction with those spiked post-extraction. The recovery for BMS-986142 is 89-90%. The recoveries for methotrexate and 7-hydroxymethotrexate are 88-94% and 83-88%, respectively. The room temperature, freeze-thaw, and frozen storage stability of BMS-986142 were evaluated in triplicate or quadruplicate using Low QC, High QC, and Dilution QC. The reinjection integrity was assessed by re-injecting an entire run. The deviations of the mean predicted concentrations of the test samples from the nominal concentrations were used as an indicator of the stability of the analyte.

[2] = Safety (adverse events), Study 2 MTX-DDI in healthy male participants
Method: This portion of the study was designed to assess the effect of BMS-986142 on the PK of MTX since MTX is used as a background therapy in RA patients and all patients will receive MTX when the phase 2 study of BMS-986142 is conducted. Eligible participants were confined to the clinical facility for the duration of treatment (15 days). Healthy participants were administered a single oral dose of 7.5 mg MTX on day 1. On day 2, participants received leucovorin (a single oral dose of 15 mg) as a preventive measure for MTX toxicity. After a washout period (days 2–5), BMS-986142 was administered on days 6–10 in 350-mg QD doses. A concomitant dose of MTX (7.5 mg) was administered on day 8, followed by leucovorin (15 mg) on day 9 (Online Resource 2). BMS-986142 was administered with 240 mL of water, and a minimum amount of additional water was permitted to allow dosing of all medications. Only healthy male participants (ages ≥18 to ≤50 years) were eligible for the MTX-DDI assessment in study 2. Other key inclusion and exclusion criteria were identical to those in study 1.
Participants were monitored for adverse events (AEs) throughout the study. Clinical laboratory tests, vital sign measurements, 12-lead ECGs, and physical examinations were performed at selected times throughout the dosing interval. Safety data was recorded in the participants’ medical records, and assessments were performed for emergent AEs or serious AEs (SAEs). For all AEs, causal relationship to the study drug was determined by an investigator.

[3] = 19.6 hours at RT in Plasma, Dilution QC 10000.00
[4] = 19.6 hours at RT in Plasma, High QC 800.00
[5] = 19.6 hours at RT in Plasma, Low QC 3.00
[6] = 96 h Processed sample stability, Dilution QC 10000.00
[7] = 96 h Processed sample stability, High QC 800.00
[8] = 96 h Processed sample stability, Low QC 3.00
[9] = 7 days at 5 °C Re-injection integrity, Dilution QC 10000.00
[10] = 7 days at 5 °C Re-injection integrity, High QC 800.00
[11] = 7 days at 5 °C Re-injection integrity, Low QC 3.00
[12] = 327 day at -20 °C in Plasma, Dilution QC 10000.00
[13] = 327 day at -20 °C in Plasma, High QC 800.00
[14] = 327 day at -20 °C in Plasma, Low QC 3.00
[15] = After 4 Freeze-Thaw Cycle in Plasma, Dilution QC 10000.00
[16] = After 4 Freeze-Thaw Cycle in Plasma, High QC 800.00
[17] = After 4 Freeze-Thaw Cycle in Plasma, Low QC 3.00
[18] = BMS-986142 350 mg QD (Days 6 and 7), n = 12
[19] = BMS-986142 350 mg QD (Days 8 to 10) + MTX 7.5 mg (Day 8) + leucovorin 15 mg (Day 9), n = 12

For `Cc1c(-c2c(F)cc(C(N)=O)c3[nH]c4c(c23)CC[C@H](C(C)(C)O)C4)cccc1-n1c(=O)c2cccc(F)c2n(C)c1=O` [BMS-986142, 6-fluoro-5-(R)-(3-(S)-(8-fluoro-1-methyl-2,4-dioxo-1,2-dihydroquinazolin-3(4H)-yl)-2-methylphenyl)-2-(S)-(2-hydroxypropan-2-yl)-2,3,4,9-tetrahydro-1H-carbazole-8-carboxamide], the “Stability, %Dev” value [1, 3] was 3.1%, the “Stability, Mean Conc.” value [1, 3] was 10314.35 ng/mL and the “Stability, %Dev” value [1, 4] was 2.0%. The “Stability, Mean Conc.” value [1, 4] was 816.24 ng/mL, the “Stability, %Dev” value [1, 5] was 8.3% and the “Stability, Mean Conc.” value [1, 5] was 3.25 ng/mL. For the same molecule, the “Stability, %Dev” value [1, 6] was -3.3%, the “Stability, Mean Conc.” value [1, 6] was 9666.77 ng/mL and the “Stability, %Dev” value [1, 7] was 1.7%. The “Stability, Mean Conc.” value [1, 7] was 813.52 ng/mL, the “Stability, %Dev” value [1, 8] was 4.0% and the “Stability, Mean Conc.” value [1, 8] was 3.12 ng/mL. For the same molecule, the “Stability, %Dev” value [1, 9] was 9.9%, the “Stability, Mean Conc.” value [1, 9] was 10986.50 ng/mL and the “Stability, %Dev” value [1, 10] was 4.7%. For the same molecule, the “Stability, Mean Conc.” value [1, 10] was 837.90 ng/mL, the “Stability, %Dev” value [1, 11] was 2.7% and the “Stability, Mean Conc.” value [1, 11] was 3.08 ng/mL. The “Stability, %Dev” value [1, 12] was -4.2%, the “Stability, Mean Conc.” value [1, 12] was 9578.40 ng/mL and the “Stability, %Dev” value [1, 13] was 1.9%. The “Stability, Mean Conc.” value [1, 13] was 815.36 ng/mL, the “Stability, %Dev” value [1, 14] was 5.0% and the “Stability, Mean Conc.” value [1, 14] was 3.15 ng/mL. For the same molecule, the “Stability, %Dev” value [1, 15] was -7.6%, the “Stability, Mean Conc.” value [1, 15] was 9241.55 ng/mL and the “Stability, %Dev” value [1, 16] was -5.9%. The “Stability, Mean Conc.” value [1, 16] was 752.66 ng/mL, the “Stability, %Dev” value [1, 17] was -6.3% and the “Stability, Mean Conc.” value [1, 17] was 2.81 ng/mL. The “AE SOC: Gastrointestinal Disorders” value [2, 18] was 0 n (%), the “AE SOC: General disorders and administration site conditions” value [2, 18] was 0 n (%) and the “AE SOC: Infections and infestations” value [2, 18] was 0 n (%). For the same molecule, the “AE SOC: Injury, poisoning and procedural complications” value [2, 18] was 0 n (%), the “AE SOC: Nervous system disorders” value [2, 18] was 1 (8.3) n (%) and the “AE SOC: Psychiatric disorders” value [2, 18] was 1 (8.3) n (%). For the same molecule, the “AE: Anxiety” value [2, 18] was 0 n (%), the “AE: Arthropod Bite” value [2, 18] was 0 n (%) and the “AE: Asthenia” value [2, 18] was 0 n (%). For the same molecule, the “AE: Dizziness” value [2, 18] was 0 n (%), the “AE: Fatigue” value [2, 18] was 0 n (%) and the “AE: Headache” value [2, 18] was 1 (8.3) n (%). The “AE: Nausea” value [2, 18] was 0 n (%), the “AE: Sleep Disorder” value [2, 18] was 1 (8.3) n (%) and the “AE: Tremor” value [2, 18] was 0 n (%). For the same molecule, the “AE: Viral Infection” value [2, 18] was 0 n (%), the “Total participants with an event” value [2, 18] was 2 (16.7) n (%) and the “AE SOC: Gastrointestinal Disorders” value [2, 19] was 2 (16.7) n (%). The “AE SOC: General disorders and administration site conditions” value [2, 19] was 1 (8.3) n (%), the “AE SOC: Infections and infestations” value [2, 19] was 1 (8.3) n (%) and the “AE SOC: Injury, poisoning and procedural complications” value [2, 19] was 1 (8.3) n (%). The “AE SOC: Nervous system disorders” value [2, 19] was 2 (16.7) n (%), the “AE SOC: Psychiatric disorders” value [2, 19] was 1 (8.3) n (%) and the “AE: Anxiety” value [2, 19] was 1 (8.3) n (%). The “AE: Arthropod Bite” value [2, 19] was 1 (8.3) n (%), the “AE: Asthenia” value [2, 19] was 0 n (%) and the “AE: Dizziness” value [2, 19] was 2 (16.7) n (%). For the same molecule, the “AE: Fatigue” value [2, 19] was 1 (8.3) n (%), the “AE: Headache” value [2, 19] was 1 (8.3) n (%) and the “AE: Nausea” value [2, 19] was 2 (16.7) n (%). For the same molecule, the “AE: Sleep Disorder” value [2, 19] was 0 n (%), the “AE: Tremor” value [2, 19] was 0 n (%) and the “AE: Viral Infection” value [2, 19] was 1 (8.3) n (%). For the same molecule, the “Total participants with an event” value [2, 19] was 4 (33.3) n (%), the “Number of AEs reported” value ([2]; Study 2, BMS-986142 on days 6 and 7) was 2 AEs and the “Number of AEs reported” value ([2]; Study 2, concomitant MTX and BMS-986142 (days 8–10)) was 9 AEs. The “AE: Cough” value ([2]; Study 2, n = 12) was 0 n (%), the “AE: Diarrhea” value ([2]; Study 2, n = 12) was 0 n (%) and the “AE: Dizziness” value ([2]; Study 2, n = 12) was 2 (16.7) n (%). For the same molecule, the “AE: Headache/tension headache” value ([2]; Study 2, n = 12) was 1 (8.3) n (%), the “AE: Nausea” value ([2]; Study 2, n = 12) was 2 (16.7) n (%) and the “AE: Thermal burns” value ([2]; Study 2, n = 12) was 0 n (%). The “AE: Upper respiratory tract infection” value ([2]; Study 2, n = 12) was 0 n (%) and the “Subjects with AEs” value ([2]; Study 2, n = 12) was 4 (33.3) n (%).
